The values that follow come from patent publication US9951010B2, “Compounds as CRTH2 antagonist and uses thereof” (SUNSHINE LAKE PHARMA CO., LTD., priority 2014, dated 2018).

Data set [1] concerns the target T1, CRTH2 receptor (Homo sapiens, UniProt Q9Y5Y4).
T1 construct: expressed in transfected cells; host or cells: CHO-K1/G cells
T1 sequence (Q9Y5Y4 1-395): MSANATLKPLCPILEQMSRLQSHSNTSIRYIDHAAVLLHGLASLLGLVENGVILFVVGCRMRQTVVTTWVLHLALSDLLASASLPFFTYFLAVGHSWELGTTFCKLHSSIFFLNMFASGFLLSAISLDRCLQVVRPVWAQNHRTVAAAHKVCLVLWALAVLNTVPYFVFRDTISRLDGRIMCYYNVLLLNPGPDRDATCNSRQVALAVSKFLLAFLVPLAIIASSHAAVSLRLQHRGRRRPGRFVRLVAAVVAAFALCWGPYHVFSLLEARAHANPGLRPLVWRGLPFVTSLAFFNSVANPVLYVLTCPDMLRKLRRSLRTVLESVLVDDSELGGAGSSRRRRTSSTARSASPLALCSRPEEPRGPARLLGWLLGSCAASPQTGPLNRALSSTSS
As to the kind of experiment: FLIPR detection of inhibitory activity against CRTH2 (CHO-K1/G cells, PGD2 as agonist). Format: cell-based. The conditions noted are these: CHO-K1/G cells with stable expression of CRTH2 receptor, PGD2 at EC80, FLIPR. Here is the method: The test compound was weighed accurately and then dissolved in a suitable amount of DMSO to prepare a stock solution at a concentration of 10 mM; after clear and transparent, the stock solution was subpackaged and cryostoraged at −20° C. for use. Before testing, the test compound was diluted with balanced salt solution (HBSS buffer, containing 4-(2-hydroxyethyl)piperazine-1-ethanesulfonicacid) at a concentration of 20 mM) to 5 times testing concentration.
CHO-K1/G cells with stable expression of CRTH2 receptor were prepared to 5 times testing concentration and seeded into 384-microwell plate, and incubated in an incubator at 37° C./5% CO2. After incubating for 18 hours, to the cells in 384-microwell plate was added 20 μL of dye followed by the addition of 10 μL of prepared test compound solution. And then the cell plate was incubated in the incubator at 37° C./5% CO2 for 1 hour, at last which was balanced at rt for 15 min. After adding 12.5 μL of positive agonist (PGD2) at a concentration of 5 times EC80 to each well of the cell plate, the RFU (fluorescence intensity) value of the test compound was detected.
The data were recorded from ScreenWorks (version 3.1), and collected and analyzed by using Excel and GraphPad Prism 6 software to calculate the values of IC50.

The subject of data set [2] is OVA (ovalbumin)-induced asthmatic model in rats. As to the kind of experiment: OVA (ovalbumin)-induced asthmatic model in rats, count of white blood cells in lung lavage. Format: in vivo. The conditions noted are these: OVA-sensitized rats, gavage once a day for three days, lung lavage solution. Here is the method: The experiment purpose was to assess the drug efficacy of the test compound in OVA (ovalbumin)-induced asthmatic model in rats.
Grouping the animal randomly to control group, model group and administered group. At the first, second and third day, the control group was administered with 1 mL of PBS (phosphate buffer solution) by intraperitoneal injection, and the model group and administered group were administered with a sensitization solution (prepared by mixing 6 mL of 1% OVA in phosphate buffer solution and 54 mL of alum solution at a ratio of 1:9) by intraperitoneal injection per day (1 mL per rat).
From the nineteenth day, the administered group was administered with the test compound at a certain dose by gavage, and the control group and model group was administered with the menstruum at a corresponding dose by gavage, once a day for three days. After 1 hour of administering each day, attacking the model group and administered group with 1% OVA in phosphate buffer solution and the control group with phosphate buffer solution for 20 min.
At the twenty-third day, the animals were anesthetized with 1% pentobarbital sodium (60 mg/Kg) by intraperitoneal injection. The blood samples were collected from aorta abdominalis under pentobarbital sodium anaesthesia into EDTA-K2 tubes. After tracheal intubation was performed, the lung of the animals were lavaged with 3 mL of PBS containing 1% FBS (Fetal Bovine Serum) once, and then lavaged with 5 mL of PBS containing 1% FBS at least two times; the volume of the combined lavage solutions were adjusted to 15 mL. The total cells in the lavage solution were counted by using a hemacytometer and a Trypan blue staining method and then white blood cells in the lavage solution were counted differentially.

The nature of data set [3]: Detection of PK in rats. Format: in vivo. The conditions noted are these: rat, plasma. Here is the method:
The analysis was performed using a 4000 QTRAPP series LC/MS/MS mass spectrometer equipped with Agilent 1200 dual injection pumps, 1290 automatic sampler, column oven and ESI source, detecting by the negative ion MRM mode. Waters Xbridge C18 column was used in the analysis, and the mobile phase consisted of phase (A) (2 mM ammonium formate+0.1% aqueous ammonia solution) and phase (B) (2 mM ammonium formate+0.1% ammonia methanol solution), the flow rate was 0.4 mL/min, column temperature was 40° C., the amount of injection was 3 μL.
The male Beagle dogs or rats were administered with the compound of the invention by intravenous injection (0.4 mg/Kg) and gavage (1 mg/Kg) respectively, the blood samples were collected at the time point of 0.083, 0.25, 0.5, 1, 2, 4, 6, 8, 10, 24 and 36 h and then centrifuged to obtain plasma samples. The compound concentrations in plasma samples at various times were detected by LC/MS/MS (the method described in biologic example 3), the main pharmacokinetic parameters were calculated, and pharmacokinetic properties of the compounds of the invention in Beagle dogs or rats were evaluated.

Data set [4] relates to eosinophilia in airway of Wistar rats induced by DK-PGD2. As to the kind of experiment: Eosinophilia in airway of Wistar rats induced by DK-PGD2, cell count in BALF. Format: in vivo. More on the design: The total number of white blood cells: unit not given here. Conditions: for inhibitory effects on the total number of white blood cells and the number of eosinophilic granulocytes: Wistar rats induced by DK-PGD2, compared with OC000459; for Eosinophilic granulocyte C (10^5/ml) / Eosinophilic granulocyte Inhibition rate / The total number of white blood cells: Wistar rats, 10 mg/Kg preventive dose 0.5 h before DK-PGD2, BALF after 24 h. Here is the method:
Purpose: evaluation of inhibitory effects of the compounds on the total number of white blood cells and eosinophilia in airway of Wistar rats induced by DK-PGD2.
Process: observation on the drug therapeutic effect through preventive medication. Specific operation: After 0.5 h of administering a preventive dose, the administered group and model group were induced eosinophilia with 100 μL of DK-PGD2 by spray injection through airway of rats, the blank group was spray injected with a corresponding dose of normal saline; after 24 h of molding, the rats were killed by bloodletting from aorta abdominalis, exposing the airway and the chest, performing the trachea cannula, and the bronchial pulmonary alveoli were lavaged with 8 mL of 1% BSA in PBS in twice, the bronchoalveolar lavage fluids (BALF) were collected and placed in an ice-bath; after smear, the cells were differential counted. The concentration of DK-PGD2 mother liquor was 10 mg/mL, which was diluted 5 folds to get 2 mg/mL.

Data set [5] in a line: Hygroscopicity test by dynamic vapor sorption. In kind it is physicochemical. Conditions: DVS, 25° C. Here is the method: The hygroscopicity disclosed herein is detected on a DVS INT-Std dynamic vapor and gas absorption analyzer (England Surface Measurement Systems Company) under the humidity ranged from 0% to 95%, the airflow rate is 200 mL/min, the temperature is 25° C., and one test point is provided per rising 5% humidity.
An appropriate amount of test sample was sampled, and the hygroscopicity of the test sample was detected on a dynamic vapor sorption instrument. The experiment results are as shown in table 7; the dynamic vapor sorption profiles of the crystalline form I of the compound represented by Formula (VI) is substantial the same as shown in FIG. 19.
The hygroscopic features and definition of hygroscopic weight gain are summarized in table 8 (deriving from Chinese Pharmacopoeia 2010, appendix XIX J: Guideline on pharmaceutical hygroscopicity test, test conditions: 25° C.±1° C., Relative Humidity 80%).

Consider `Cc1c(C2CCC(NC(=O)c3ccc4ccccc4n3)CC2)c2cc(F)ccc2n1CC(=O)O.Cl` (single isomer, unassigned) [Example 6a, 2-(5-fluoro-2-methyl-3-(4-(quinoline-2-carboxamido)cyclohexyl)-1H-indol-1-yl)acetic acid hydrochloride], for which the IC50 (in general, the midpoint of a concentration-inhibition curve) in data set [1] amounted to 200 nM. Besides, in data set [2], the “Eosinophilic granulocyte Inhibition ratio” value is given as 33%, the “Eosinophilic granulocyte Number (×10^5/mL)” value is recorded as 153.75 ×10^5/mL and the “Total number of white cells (×10^5/mL)” value was 247.350 ×10^5/mL. Further, in data set [3] (iv, 0.4 mg/Kg), the area under the curve AUC(0-inf) (in general, total exposure, with the tail of the curve extrapolated) was determined as 2780 ng·h/mL; the AUC(0-t) (commonly exposure summed from dosing to a finite time, without extrapolation to infinity) is 2680 ng·h/mL; the Cmax (as a rule, the highest concentration seen after dosing) turned out to be 2020 ng/mL; the half-life (as a rule, the time in which the quantity being followed falls by half) was 1.57 h. In data set [3] (po, p.o. (gavage), 1 mg/Kg), this compound showed an AUC(0-inf) of 5940 ng·h/mL, an AUC(0-t) of 5670 ng·h/mL, a Cmax of 2110 ng/mL and a half-life of 2.86 h. Further, in data set [4], the “inhibitory effects on the total number of white blood cells and the number of eosinophilic granulocytes” value is “stronger than those of OC000459”; the “Eosinophilic granulocyte C (10^5/ml)” value was 0.0568 ± 0.02^## 10^5/ml; the “Eosinophilic granulocyte Inhibition rate” value is 86.85%; the “The total number of white blood cells” value was 1.634 ± 0.30.
`Cc1c(C2CCC(NS(=O)(=O)c3ccc(F)cc3)CC2)c2cc(F)ccc2n1CC(=O)O` (single isomer, unassigned) [Example 27b, 2-(5-fluoro-3-(4-(4-fluorophenylsulfonamido)cyclohexyl)-2-methyl-1H-indol-1-yl)acetic acid]: in data set [1], the IC50 was found to be 57.3 nM. Also, in data set [2], the “Eosinophilic granulocyte Inhibition ratio” value is 38.55%, the “Eosinophilic granulocyte Number (×10^5/mL)” value is 142.17 ×10^5/mL and the “Total number of white cells (×10^5/mL)” value is reported as 277.800 ×10^5/mL. In data set [3] (iv, 0.4 mg/Kg), this compound had an AUC(0-inf) of 920 ng·h/mL, an AUC(0-t) of 883 ng·h/mL, a Cmax of 802 ng/mL and a half-life of 1.58 h. Besides, in data set [3] (po, p.o. (gavage), 1 mg/Kg), the AUC(0-inf) amounted to 1640 ng·h/mL, the AUC(0-t) came to 1600 ng·h/mL, the concentration peaked (Cmax) at 631 ng/mL and the half-life is 1.33 h. In addition, in data set [4], the “inhibitory effects on the total number of white blood cells and the number of eosinophilic granulocytes” value was “stronger than those of OC000459”; the “Eosinophilic granulocyte C (10^5/ml)” value was 0.09597 ± 0.04^## 10^5/ml; the “Eosinophilic granulocyte Inhibition rate” value is listed as 76.76%; the “The total number of white blood cells” value amounted to 1.986 ± 0.28.
For the compound `Cc1c(C2CCN(S(=O)(=O)c3ccc(F)cc3)CC2)c2cc(F)ccc2n1CC(=O)O` [Crystalline form I, 2-(5-fluoro-3-(1-((4-fluorophenyl)sulfonyl)piperidin-4-yl)-2-methyl-1H-indol-1-yl)acetic acid], the “Weigh increase rate % under RH 80%” value in data set [5] (RH 80%) amounted to 0.293%. The “Weigh increase rate % under RH 95%” value in data set [5] (RH 95%) was 0.499%.
As to `Cc1c(C2CCN(S(=O)(=O)c3ccc(F)cc3F)CC2)c2cc(F)ccc2n1CC(=O)O` [Example 33, 2-(5-fluoro-3-(1-((2,4-difluorophenyl)sulfonyl)piperidin-4-yl)-2-methyl-1H-indol-1-yl)acetic acid], the IC50 in data set [1] turned out to be 80.4 nM. In data set [3] (iv, 0.4 mg/Kg), this compound showed an AUC(0-inf) of 2500 ng·h/mL, an AUC(0-t) of 2440 ng·h/mL, a Cmax of 1300 ng/mL and a half-life of 4.5 h. Further, in data set [3] (po, p.o. (gavage), 1 mg/Kg), the AUC(0-inf) was 4270 ng·h/mL, the AUC(0-t) was 4090 ng·h/mL, the Cmax was found to be 1960 ng/mL and the half-life is 4.52 h.
Take `Cc1c(Cc2ccc3ccccc3n2)c2cc(F)ccc2n1CC(=O)O` [OC000459, reference compound]: in data set [4], the “Eosinophilic granulocyte C (10^5/ml)” value is given as 0.1192 ± 0.03^## 10^5/ml, the “Eosinophilic granulocyte Inhibition rate” value came to 70.77% and the “The total number of white blood cells” value turned out to be 2.427 ± 0.25.
